{"source": "patent US20050223431A1", "about": "“Methods of modulating glucosinolate production in plants” (The Arizona Board of Regents on Behalf of the University of …, priority 2000, published 2005)", "key": {"[1]": {"molecular_target": "T1, CYP83B1 (Arabidopsis thaliana, UniProt O65782)", "T1 sequence (O65782 1-499)": "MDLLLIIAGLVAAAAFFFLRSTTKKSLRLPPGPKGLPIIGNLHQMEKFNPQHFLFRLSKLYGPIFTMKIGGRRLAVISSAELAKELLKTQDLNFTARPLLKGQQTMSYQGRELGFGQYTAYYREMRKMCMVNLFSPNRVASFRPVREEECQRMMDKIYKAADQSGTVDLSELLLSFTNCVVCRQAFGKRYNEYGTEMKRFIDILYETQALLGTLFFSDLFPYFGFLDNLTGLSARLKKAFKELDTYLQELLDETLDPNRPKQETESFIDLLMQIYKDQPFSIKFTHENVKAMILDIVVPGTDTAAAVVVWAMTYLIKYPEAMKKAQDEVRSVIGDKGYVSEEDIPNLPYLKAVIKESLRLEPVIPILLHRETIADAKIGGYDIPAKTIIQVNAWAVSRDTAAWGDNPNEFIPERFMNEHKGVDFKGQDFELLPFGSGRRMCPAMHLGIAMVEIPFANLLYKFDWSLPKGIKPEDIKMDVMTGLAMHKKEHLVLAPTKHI", "test": "biochemical", "conditions": "for Type II spectrum (ligand binding to active site) / Relative affinity for ligand binding, from amplitudes of type II spectra: CYP83B1, 200 μM ligand", "text": "(§1) FIG. 6 is a spectral characterization of CYP83A1 and CYP83B1. […] 1) tryptamine, 2) β-phenylethylamine, 3) tyramine, 4) n-octylamine, 5) 5-OH-tryptamine, 6) 3-OH-tyramine, B) baseline.\n(§2) To compensate for ligand absorbance, the experimental data were fitted to a hyperbolic curve using the equation A=Amax*X/(Ks+X)+C*X, where A is the amplitude of the spectra, X the concentration of ligand, and C the contribution from ligand absorbance. The computed regression curve is shown as well as the experimental data points.\n(§3) Microsomes from yeast WAT11 cells expressing the CYP83A1 and CYP83B1 cDNA using the pYeDP60 vector were isolated and the amount of functional enzyme quantified essentially according to Pompon et al. (1996) Methods Enzymol. 272:51-64. […] 13:101-111 and references therein. Vmax and Km were determined as previously described using 2.2 nM of CYP83A1 or CYP83B1 and 50 mM L-cysteine as thiol donor (Bak et al. (2001) Plant Cell. 13:101-111). […] Vmax, Km, and Ks were calculated using SigmaPlot 5.0 (SPSS Inc.). For analysis of CYP83B1 activity in the presence or absence of thiol donors, recombinant CYP83B1 was reconstituted and analyzed as previously described (Bak et al. (2001) Plant Cell. 13:101-111).\n(§4) To characterize the topology of the active sites of […] and CYP83B 1, we have taken advantage of the ability of nitrogen-containing ligands like primary amines to produce type II spectra with cytochrome P450 enzymes by binding to the active site bringing the electron lone pairs of the amine group in close vicinity to the heme iron (Jefcoate C. R. (1978) Methods Enzymol 27:258-279). This gives rise to a characteristic spectrum with a trough around 390 nm and a peak around 425 nm.\n(§5) By titrating the amplitude of the type II difference spectra with increasing concentrations of ligand, Ks values were determined for tryptamine and β-phenylethylamine (FIG. 7)."}, "[2]": {"molecular_target": "T2, CYP83A1 (Arabidopsis thaliana, UniProt P48421)", "T2 sequence (P48421 1-502)": "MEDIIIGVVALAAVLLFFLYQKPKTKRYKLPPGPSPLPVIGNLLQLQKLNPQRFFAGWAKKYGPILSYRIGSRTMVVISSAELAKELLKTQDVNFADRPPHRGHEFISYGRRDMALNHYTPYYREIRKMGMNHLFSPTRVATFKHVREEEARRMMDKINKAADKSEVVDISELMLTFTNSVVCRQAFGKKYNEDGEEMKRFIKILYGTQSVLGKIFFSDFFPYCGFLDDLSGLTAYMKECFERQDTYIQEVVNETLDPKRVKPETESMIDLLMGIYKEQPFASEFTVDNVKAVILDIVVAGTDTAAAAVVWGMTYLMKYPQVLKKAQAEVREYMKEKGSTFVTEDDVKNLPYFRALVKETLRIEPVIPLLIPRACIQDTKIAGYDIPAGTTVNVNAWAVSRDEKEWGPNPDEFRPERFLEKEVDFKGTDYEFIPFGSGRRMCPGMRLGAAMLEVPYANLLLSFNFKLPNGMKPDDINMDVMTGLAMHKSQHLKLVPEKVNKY", "test": "biochemical", "conditions": "for Type II spectrum (ligand binding to active site) / Relative affinity for ligand binding, from amplitudes of type II spectra: CYP83A1, 200 μM ligand", "text": "as §1, §2, §3, §4, §5"}, "[3]": {"molecular_target": "T1, CYP83B1", "test": "Reconstitution with oximes, turnover numbers by GC-MS", "type": "biochemical", "set-up": "made in house; host or cells: yeast WAT11 cells, pYeDP60 vector; microsomes", "conditions": "CYP83B1 0.5 μM, 1 mM substrate, β-mercaptoethanol thiol donor, 20 min at 28° C.", "description": "(§6) Turnover numbers were calculated based on the relative areas under the substrate and product peaks. Silylated substrates and products were identified by their fragmentation pattern in both electron impact mode and chemical ionization mode.\n(§7) Reconstitution experiments were also conducted to compare the ability of CYP83A1 and CYP83B1 to metabolize other oximes. The putative substrates tested were p-hydroxyphenylacetaldoxime derived from tyrosine and phenylacetaldoxime derived from phenylalanine. In all studies, β-mercaptoethanol was the thiol donor. […] Conversely, the turnover of p-hydroxyphenylacetaldoxime was higher using CYP83A1 compared to CYP83B 1. Phenylacetaldoxime was identified as a substrate for CYP83A1 as well as for CYP83B1 but the turnover numbers were low (Table 1)."}, "[4]": {"molecular_target": "T2, CYP83A1", "test": "Reconstitution with oximes, turnover numbers by GC-MS", "type": "biochemical", "set-up": "made in house; host or cells: yeast WAT11 cells, pYeDP60 vector; microsomes", "conditions": "CYP83A1 0.5 μM, 1 mM substrate, β-mercaptoethanol thiol donor, 20 min at 28° C.", "description": "as §6, §7"}, "[5]": {"molecular_target": "T1, CYP83B1", "test": "Kinetics of indole-3-acetaldoxime metabolism by recombinant enzyme in yeast microsomes", "description": "Computed regression curves as well as the experimental data points are shown. The correlation coefficients (R^2) for CYP83B1 and CYP83A1 regression analyses are 0.985 and 0.999, respectively.\nas §3"}, "[6]": {"molecular_target": "T1, CYP83B1", "set-up": "made in house; host or cells: yeast WAT11 cells, pYeDP60 vector; microsomes", "conditions": "cited from earlier work"}, "[7]": {"test_system": "ON=CCc1c[nH]c2ccccc12", "test": "cells, lysate or membranes named", "conditions": "other: CYP83A1 in yeast microsomes, 2.2 nM enzyme, 50 mM L-cysteine as thiol donor"}, "[8]": {"substrate": "ON=CCc1c[nH]c2ccccc12", "test": "cells, lysate or membranes named", "conditions": "other: CYP83B1 in yeast microsomes, 2.2 nM enzyme, 50 mM L-cysteine as thiol donor"}}}
{"molecule": "NCCc1c[nH]c2ccc(O)cc12", "note": "[5-OH-tryptamine]", "values": [{"measurement": "Type II spectrum (ligand binding to active site)", "setting": "[1]", "result": "abolished binding"}, {"measurement": "Type II spectrum (ligand binding to active site)", "setting": "[2]", "result": "abolished binding"}]}
{"molecule": "N#CCc1c[nH]c2ccccc12", "note": "[Indole-3-acetonitrile]", "values": [{"measurement": "Type II spectrum (ligand binding to active site)", "setting": "[1]", "result": "did not produce a type II spectrum"}, {"measurement": "Type II spectrum (ligand binding to active site)", "setting": "[2]", "result": "did not produce a type II spectrum"}]}
{"molecule": "ON=CCc1c[nH]c2ccccc12", "note": "[indole-3-acetaldoxime]", "values": [{"measurement": "Turnover, indole-3-acetaldoxime", "setting": "[3]", "result": 26, "unit": "min⁻¹"}, {"measurement": "Turnover, indole-3-acetaldoxime", "setting": "[4]", "result": 10, "unit": "min⁻¹"}, {"measurement": "Fold higher catalytic efficiency (Vmax/Km), CYP83B1 compared to CYP83A1", "setting": "[5]; indole-3-acetaldoxime as substrate", "result": 20, "unit": "fold"}, {"measurement": "Fold difference in Km / affinity, CYP83B1 versus CYP83A1", "setting": "[5]; indole-3-acetaldoxime, higher affinity (lower Km) for CYP83B1", "result": 50, "unit": "fold"}]}
{"molecule": "CCCCCCCCN", "note": "[n-octylamine]", "values": [{"measurement": "Relative affinity for ligand binding, from amplitudes of type II spectra", "setting": "[1]", "result": "tryptamine >>β-phenylethylanine>n-octylamine>tyramine"}, {"measurement": "Type II spectrum (ligand binding to active site)", "setting": "[1]", "result": "type II spectra were observed"}, {"measurement": "Relative affinity for ligand binding, from amplitudes of type II spectra", "setting": "[2]", "result": "n-octylamine>>α-phenylethylamine=tryptarine>tyramine"}, {"measurement": "Type II spectrum (ligand binding to active site)", "setting": "[2]", "result": "type II spectra were observed"}]}
{"molecule": "ON=CCc1ccc(O)cc1", "note": "[p-hydroxyphenylacetaldoxime]", "values": [{"measurement": "Turnover p-hydroxyphenylacetaldoxime", "setting": "[3]", "result": 9.8, "unit": "min⁻¹"}, {"measurement": "Turnover p-hydroxyphenylacetaldoxime", "setting": "[4]", "result": 25, "unit": "min⁻¹"}]}
{"molecule": "ON=CCc1ccccc1", "note": "[phenylethylacetaldoxime, phenylacetaldoxime]", "values": [{"measurement": "Turnover phenylethylacetaldoxime", "setting": "[3]", "result": 15, "unit": "min⁻¹"}, {"measurement": "Turnover phenylethylacetaldoxime", "setting": "[4]", "result": 7.2, "unit": "min⁻¹"}]}
{"molecule": "NCCc1c[nH]c2ccccc12", "note": "[tryptamine]", "values": [{"measurement": "Inhibition of metabolism of indole-3-acetaldoxime", "setting": "[6]", "result": "inhibits metabolism of indole-3-acetaldoxime"}, {"measurement": "Kd", "setting": "[1]", "result": "18 ± 5", "unit": "µM"}, {"measurement": "Relative affinity for ligand binding, from amplitudes of type II spectra", "setting": "[1]", "result": "tryptamine >>β-phenylethylanine>n-octylamine>tyramine"}, {"measurement": "Fold stronger binding to CYP83B1 compared to CYP83A1", "setting": "[1]; from Ks values", "result": 13, "unit": "fold"}, {"measurement": "Fold stronger ligand for CYP83B1 compared to β-phenylethylamine", "setting": "[1]; from Ks values", "result": 30, "unit": "fold"}, {"measurement": "Kd", "setting": "[2]", "result": "240 ± 180", "unit": "µM"}, {"measurement": "Relative affinity for ligand binding, from amplitudes of type II spectra", "setting": "[2]", "result": "n-octylamine>>α-phenylethylamine=tryptarine>tyramine"}]}
{"molecule": "NCCc1ccccc1", "note": "[β-phenylethylamine]", "values": [{"measurement": "Kd", "setting": "[1]", "result": "540 ± 180", "unit": "µM"}, {"measurement": "Relative affinity for ligand binding, from amplitudes of type II spectra", "setting": "[1]", "result": "tryptamine >>β-phenylethylanine>n-octylamine>tyramine"}, {"measurement": "Type II spectrum (ligand binding to active site)", "setting": "[1]", "result": "type II spectra were observed"}, {"measurement": "Kd", "setting": "[2]", "result": "390 ± 70", "unit": "µM"}, {"measurement": "Relative affinity for ligand binding, from amplitudes of type II spectra", "setting": "[2]", "result": "n-octylamine>>α-phenylethylamine=tryptarine>tyramine"}, {"measurement": "Type II spectrum (ligand binding to active site)", "setting": "[2]", "result": "type II spectra were observed"}]}
{"molecule": "CYP83A1 (Arabidopsis thaliana)", "values": [{"measurement": "Km", "setting": "[7]", "result": "150 ± 15", "unit": "µM"}, {"measurement": "kcat", "setting": "[7]", "result": "2.33 ± 0.167", "unit": "s⁻¹"}]}
{"molecule": "CYP83B1 (Arabidopsis thaliana) (protein) MDLLLIIAGLVAAAAFFFLRSTTKKSLRLPPGPKGLPIIGNLHQMEKFNPQHFLFRLSKLYGPIFTMKIGGRRLAVISSAELAKELLKTQDLNFTARPLLKGQQTMSYQGRELGFGQYTAYYREMRKMCMVNLFSPNRVASFRPVREEECQRMMDKIYKAADQSGTVDLSELLLSFTNCVVCRQAFGKRYNEYGTEMKRFIDILYETQALLGTLFFSDLFPYFGFLDNLTGLSARLKKAFKELDTYLQELLDETLDPNRPKQETESFIDLLMQIYKDQPFSIKFTHENVKAMILDIVVPGTDTAAAVVVWAMTYLIKYPEAMKKAQDEVRSVIGDKGYVSEEDIPNLPYLKAVIKESLRLEPVIPILLHRETIADAKIGGYDIPAKTIIQVNAWAVSRDTAAWGDNPNEFIPERFMNEHKGVDFKGQDFELLPFGSGRRMCPAMHLGIAMVEIPFANLLYKFDWSLPKGIKPEDIKMDVMTGLAMHKKEHLVLAPTKHI", "values": [{"measurement": "Km", "setting": "[8]", "result": "3.1 ± 0.4", "unit": "µM"}]}
